Here are results for 4 molecules from patent EP4772514A1, “MACROCYCLIC COMPOUNDS, PREPARATION METHOD THEREFOR, AND USE THEREOF” (Genfleet Therapeutics (Shanghai) Inc., priority 2023, dated 2025).

Assay type in all cases: cell-based
One assay concerns NCI-H441 cells. As to the kind of experiment: 3D cell proliferation assay (CellTiter Glo-3D) in NCI-H441 cells. The settings on record: Homo sapiens, NCI-H441, 120 h, NCI-H441, human lung cancer cell strain, KRAS G12V mutation; 3D culture, 2% FBS, 5 days; read-out: H441 AP IC50. A digest of the protocol: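 After a 5-day exposure at 37 °C to 3.16-fold serial dilutions (final DMSO 0.1%) in 2% FBS RPMI-1640, ATP luminescence (CellTiter-Glo 3D) was read. Cells were AsPC-1 (KRAS G12D) or NCI-H441 (KRAS G12V), 800 per well; inhibition used DMSO and medium-only controls, with four-parameter curve fitting giving IC50.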
Background: ATP-based viability assays read luminescence as a measure of living cells.

For a further assay, the system named is AsPC-1 cells. The assay is described as follows: 3D cell proliferation assay (CellTiter Glo-3D) in AsPC-1 cells. To be noted: ASPC1, 120 h; AsPC-1, human pancreatic cancer cell strain, KRAS G12D mutation; 3D culture, 2% FBS, 5 days; read-out: AsPC-1 AP IC50. An excerpt:
MIA PaCa-2 cells were purchased from ATCC, Cat. No. CRL-1420; AsPC-1 cells were purchased from ATCC, Cat. No. CRL-1682; NCI-H441 cells were purchased from ATCC, Cat. No. HTB-174; NCI-H1975 cells were purchased from ATCC, Cat. No. CRL-5908; DMEM medium was purchased from Gibco, Cat. No. 11995-065; RPMI-1640 medium was purchased from Gibco, Cat. No. 11875-093; FBS was purchased from Gibco, Cat. No. 10099-141C; penicillin/streptomycin double-antibiotic solution (PS) was purchased from Gibco, Cat. No. 15140-122; Horse serum was purchased from Gibco, Cat. No. 16050130; trypsin (containing EDTA) was purchased from Gibco, Cat. No. 25200-072; DMSO was purchased from VWRAMRESCO, Cat. No. 0231-500ML; 384-well cell culture plates were purchased from Corning, Cat. No. 3830; white-bottomed, opaque 384-well assay plates were purchased from Corning, Cat. No. 3570; CellTiter Glo-3D kit was purchased from Promega, Cat. No. G9683; cell counter was purchased from CHEMOMETEC, model: NC-200; microplate reader was purchased from PerkinElmer, model: EnVision.
MIA PaCa-2, a human pancreatic cancer cell strain endogenously containing a KRAS^G12Cmutation, was cultured in a complete medium containing DMEM + 10% FBS + 2.5% Horse serum + 1% PS. AsPC-1, a human pancreatic cancer cell strain endogenously containing a KRAS^G12D mutation, was cultured in a complete medium containing RPMI-1640 + 10% FBS + 1% PS. NCI-H441 cells, a human lung cancer cell strain endogenously containing a KRAS^G12V mutation, were cultured in a complete medium containing RPMI-1640 + 10% FBS + 1% PS. NCI-H1975, a KRAS wild-type human lung cancer cell strain whose cell proliferation […], was cultured in a complete medium containing RPMI-1640 + 10% FBS + 1% PS.
The cells were digested with trypsin (containing EDTA), collected in their respective low-serum complete media containing 2% FBS (for MIA Paca-2 cell culture: DMEM + 2% FBS + 0.5% Horse serum + 1% PS), and counted. After the cell density was adjusted as required, MIA PaCa-2 cells (200 cells/well), AsPC-1 cells (800 cells/well), NCI-H441 cells (800 cells/well), or NCI-H1975 cells (400 cells/well) were seeded into a 384-well cell culture plate, with the volume of the medium in each well being 45 µL. The cell culture plate was incubated in an incubator at 37 °C with 5% CO2 overnight. A series of 3.16-fold gradient dilutions of a 1000× compound stock solution were prepared with DMSO, and then diluted 100-fold with the complete medium containing 2% FBS described above to give 10× compound stock solutions. On the day after cell seeding, 5 µL of the 10× compound stock solution was added to each cell culture well. As a result, the final concentration of the compound in the cell culture well became 1×, and the DMSO content in the well was 0.1%. In addition to the compound-treated wells described above, cell-containing DMSO control wells (with 5 µL of the complete medium containing 1% DMSO added to each well) and cell-free medium control wells (containing 50 µL of the complete medium with 2% FBS) were also set. The culture plate was incubated in an incubator at 37 °C with 5% CO2 for another 5 days, and then 30 µL of CellTiter-Glo working solution was added to each well. The mixture was well mixed, incubated for 30 min, left to stand at room temperature for 30 min, and then transferred to a white-bottomed, opaque 384-well assay plate at 40 µL/well. The chemiluminescence values (RLU) were measured using a microplate reader, and the cell proliferation inhibition rate for each well was calculated: IR(%) = (RLUDMSO - RLUcompound)/(RLUDMSO - RLUblank) × 100%, where RLUDMSO is the average RLU signal value from the DMSO control well samples, RLUblank is the average RLU signal value from the medium control well samples, and RLUcompound is the RLU signal value from the compound-treated well samples. […]

The subject of assay [1] is p-ERK. The assay is described as follows: Cell p-ERK assay (HTRF, Advance ERK phospho-T202/Y204 kit) in AsPC-1 cells. The settings on record: ASPC1; AsPC-1, human pancreatic cancer cell strain, KRAS G12D mutation; 3 h compound incubation. The protocol: AsPC-1 cells were purchased from ATCC, Cat. No. CRL-1682; NCI-H441 cells were purchased from ATCC, Cat. No. HTB-174; RPMI-1640 medium was purchased from Gibco, Cat. No. 11875-093; FBS was purchased from Gibco, Cat. No. 10099-141C; penicillin/streptomycin double-antibiotic solution (PS) was purchased from Gibco, Cat. No. 15140-122; trypsin (containing EDTA) was purchased from Gibco, Cat. No. 25200-072; DMSO was purchased from VWRAMRESCO, Cat. No. 0231-500ML; 96-well cell culture plates were purchased from Corning, Cat. No. 3599; white-bottomed, opaque 96-well plates were purchased from Cisbio, Cat. No. 66PL96025; Advance ERK phospho-T202/Y204 kit was purchased from Cisbio, Cat. No. 64AERPEH; cell counter was purchased from CHEMOMETEC, model: NC-200; microplate reader was purchased from PerkinElmer, model: EnVision.
AsPC-1, a human pancreatic cancer cell strain endogenously containing a KRAS^G12D mutation, was cultured in a complete medium containing RPMI-1640 + 10% FBS + 1% PS. NCI-H441, a human non-small cell lung cancer cell strain endogenously containing a KRAS^G12V mutation, was cultured in a complete medium containing RPMI-1640 + 10% FBS + 1% PS.
The cells were digested with trypsin (containing EDTA), collected in their corresponding complete media, and counted. The density of the cell suspensions was adjusted with their corresponding complete media, and AsPC-1 cells (10000 cells/well) or NCI-H441 cells (20000 cells/well) were seeded into a 96-well cell culture plate, with the volume of the medium in each well being 80 µL. The cell culture plate was incubated in an incubator at 37 °C with 5% CO2 overnight. A series of 3.16-fold gradient dilutions of a 1000× compound stock solution were prepared with DMSO, and then diluted 200-fold with the complete medium described above to give 5× compound stock solutions. On the day after cell seeding, 20 µL of the 5× compound stock solution was added to each cell culture well. As a result, the final concentration of the compound in the cell culture well became 1×, and the DMSO content in the well was 0.1%. In addition to the compound-treated wells described above, cell-containing DMSO control wells were also set. A complete medium containing 0.5% DMSO was added at 20 µL/well. After the mixture was well mixed, the culture plate was incubated in the incubator at 37 °C with 5% CO2 for another 3 h. The medium was then removed from the culture wells, and 50 µL of cell lysis buffer (from Advance ERK phospho-T202/Y204 kit) was added to each well. The mixture was well mixed, incubated for 30 min, and then transferred to a white-bottomed, opaque 96-well assay plate at 16 µL/well, and separately, 16 µL of cell lysis buffer was added to additional wells (serving as blank wells) in the assay plate. After the transfer was completed, 4 µL of p-ERK HTRF antibody mixture (from Advance ERK phospho-T202/Y204 kit) was added to each well of the assay plate, followed by a 4-hour incubation. The HTRF signal values (RLU) were then measured using a microplate reader, and the inhibition rate of the compound against p-ERK levels was calculated as follows: IR(%) = (RLUDMSO - RLUcompound)/(RLUDMSO - RLUblank) × 100%, where RLUDMSO is the average HTRF signal value from the DMSO control well samples, RLU is the average HTRF signal value from the blank well samples, and RLUcompound is the HTRF signal value from the compound-treated well samples. Using an XLfit software, the IR(%) values were plotted against the logarithm of the compound concentrations, and the dose-response curves were fitted using the four-parameter method to calculate the IC50 values.
In general terms: Time-resolved FRET reads energy transfer from a long-lived donor to a nearby acceptor.

Assay [2] relates to p-ERK. The assay is described as follows: Cell p-ERK assay (HTRF, Advance ERK phospho-T202/Y204 kit) in NCI-H441 cells. To be noted: Homo sapiens, NCI-H441, 3 h, NCI-H441, human non-small cell lung cancer cell strain, KRAS G12V mutation; 3 h compound incubation. The method in brief: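 Phospho-ERK (T202/Y204) measured by HTRF in lysates of AsPC-1 (KRAS G12D) or NCI-H441 (KRAS G12V) cells after 3 h compound exposure at 37 °C in RPMI-1640 + 10% FBS, 0.1% DMSO. Inhibition normalised to DMSO and blank wells; IC50 by four-parameter fit.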

`CCn1cc2c(c1-c1cc(C#CCN3CCOCC3)cnc1[C@H](C)OC)CC(C)(C)COC(=O)[C@@H]1CCCN(N1)C(=O)[C@@H](NC(=O)[C@H]1[C@H](C)[C@@H]1C)Cc1nc(cs1)/C=C/2` (atropisomer, axis not shown; (Ra)) [Compound Z172, (1r,2R,3S)-N-((4^2Z, 8^1S, 2E, 6S)-1^1-ethyl-(Ra)-1^5-(2-((S)-1-methoxyethyl)-5-(3-morpholinoprop-1-yn-1-yl)pyridin-3-yl)-12,12-dimethyl-7,9-dioxo-8^1,8^2,8^3,8^4,8^5,8^6-hexahydro-1^1H-10-oxa-4(4,2)-thiazola-8(1,3)-pyridazina-1(3,4)-pyrrolacyclotridecaphan-2-en-6-yl)-2,3-dimethylcyclopropane-1-carboxamide]: the IC50 in the assay on NCI-H441 cells was determined as 410 pM; with AsPC-1 cells, 400 pM; with p-ERK [1] it was 740 pM; in the assay with p-ERK [2] it was 750 pM.

As to `CCn1c(F)c2c(c1-c1cc(C#CCN3CCOCC3)cnc1[C@H](C)OC)CC(C)(C)COC(=O)[C@@H]1CCCN(N1)C(=O)[C@@H](NC(=O)[C@H]1[C@H](C)[C@@H]1C)Cc1nc(cs1)/C=C/2` (atropisomer, axis not shown; (Ra)) [Compound Z229, (1r, 2R, 3S)-N-((4^2Z, 8^3S, 2E,6S)-1^1-ethyl-1^2-fluoro-(Ra)-1^5-(2-((S)-1-methoxyethyl)-5-(3-morpholinoprop-yn-1-yl)pyridin-3-yl)-12,12-dimethyl-7,9-dioxo-8^1,8^2,8^3,8^4,8^5,8^6-hexahydro-1^1H-10-oxa-4(4,2)-thiazola-8(1,3)-pyridazina-1(3,4)-pyrrolacyclotridecaphan-2-en-6-yl)-2,3-dimethylcyclopropane-1-carboxamide], the IC50 in the assay with NCI-H441 cells came to 560 pM; in the assay on AsPC-1 cells it was 560 pM; with p-ERK [1], 1040 pM; in the assay with p-ERK [2], 600 pM.

Turning to `CCn1cc2c(c1-c1cc(C#CCN3CCC(C#N)(CO)CC3)cnc1[C@H](C)OC)CC(C)(C)COC(=O)[C@@H]1CCCN(N1)C(=O)[C@@H](NC(=O)[C@H]1[C@@H]3COC[C@@H]31)Cc1nc(cs1)/C=C/2` (atropisomer, axis not shown; (Ra)) [Compound Z104, (1R,5S,6r)-N-((4^2Z,8^3S,2E,6S)-(Ra)-1^5-(5-(3-(4-cyano-4-(hydroxymethyl)piperidin-1-yl)prop-1-yn-1-yl)-2-((S)-1-methoxyethyl)pyridin-3-yl)-1^1ethyl-12,12-dimethyl-7,9-dioxo-8^1,8^2,8^3,8^4,8^5,8^6-hexahydro-1^1H-10-oxa-4(4,2)-thiazola-8(1,3)-pyridazina-1(3,4)-pyrrolacyclotridecaphan-2-en-6-yl)-3-oxabicyclo[3.1.0]hexane-6-carboxamide], the IC50 stood at 140 pM in the assay on NCI-H441 cells, 190 pM in the assay with AsPC-1 cells, 170 pM in the assay on p-ERK [1] and 470 pM in the assay with p-ERK [2].

`CCn1cc2c(c1-c1cc(C#CCN3CCC(C#N)CC3)cnc1[C@H](C)OC)CC(C)(C)COC(=O)[C@@H]1CCCN(N1)C(=O)[C@@H](NC(=O)[C@H]1[C@H](C)[C@@H]1C)Cc1nc(cs1)/C=C/2` (atropisomer, axis not shown; (Ra)) [Compound Z49, (1r,2R,3S)-N-((4 ^2Z,8^3S,2E,6S)-(Ra)-1^5-(5-(3-(4-cyanopiperidin-1-yl)prop-1-yn-1-yl)-2-((S)-1-methoxyethyl)pyridin-3-yl)-1^1-ethyl-12,12-dimethyl-7,9-dioxo-8^1,8^2,8^3,8^4,8^5,8^6-hexahydro-1^1H-10-oxa-4(4,2)-thiazola-8(1,3)-pyridazina-1(3,4)-pyrrolacyclotridecaphan-2-en-6-yl)-2,3-dimethylcyclopropane-1-carboxamide]: the IC50 in the assay with NCI-H441 cells is 140 pM; with AsPC-1 cells it was 80 pM; with p-ERK [1], 130 pM; with p-ERK [2] it was 170 pM.

For orientation: IC50 means the concentration that gives 50% inhibition.
